This assay addresses Serine/threonine-protein kinase ATR (Homo sapiens, UniProt Q13535). Put plainly: Inhibition Assay: Assays were carried out at 25° C. in the presence of 5 nM full-length ATR. An assay stock buffer solution was prepared containing all of the reagents listed above, with the exception of ATP and the test compound of interest. 13.5 μL of the stock solution was placed in a 96 well plate followed by addition of 2 μL of DMSO stock containing serial dilutions of the test compound (typically starting from a final concentration of 15 μM with 3-fold serial dilutions) in duplicate (final DMSO concentration 7%). The plate was pre-incubated for 10 minutes at 25° C. and the reaction initiated by addition of 15 μL [γ-33P]ATP (final concentration 10 μM). The reaction was stopped after 24 hours by the addition of 30 μL 0.1M phosphoric acid containing 2 mM ATP. A multiscreen phosphocellulose filter 96-well plate (Millipore, Cat no. MAPHN0B50) was pretreated with 100 μL 0.2M phosphoric acid prior to the addition of 45 μL of the stopped assay mixture. The plate was washed with 5×200 μL 0.2M phosphoric acid. After drying, 100 μL Optiphase SuperMix liquid scintillation cocktail (Perkin Elmer) was added to the well prior to scintillation counting (1450 Microbeta Liquid Scintillation Counter, Wallac).

Sequence of Serine/threonine-protein kinase ATR (Q13535 whole entry): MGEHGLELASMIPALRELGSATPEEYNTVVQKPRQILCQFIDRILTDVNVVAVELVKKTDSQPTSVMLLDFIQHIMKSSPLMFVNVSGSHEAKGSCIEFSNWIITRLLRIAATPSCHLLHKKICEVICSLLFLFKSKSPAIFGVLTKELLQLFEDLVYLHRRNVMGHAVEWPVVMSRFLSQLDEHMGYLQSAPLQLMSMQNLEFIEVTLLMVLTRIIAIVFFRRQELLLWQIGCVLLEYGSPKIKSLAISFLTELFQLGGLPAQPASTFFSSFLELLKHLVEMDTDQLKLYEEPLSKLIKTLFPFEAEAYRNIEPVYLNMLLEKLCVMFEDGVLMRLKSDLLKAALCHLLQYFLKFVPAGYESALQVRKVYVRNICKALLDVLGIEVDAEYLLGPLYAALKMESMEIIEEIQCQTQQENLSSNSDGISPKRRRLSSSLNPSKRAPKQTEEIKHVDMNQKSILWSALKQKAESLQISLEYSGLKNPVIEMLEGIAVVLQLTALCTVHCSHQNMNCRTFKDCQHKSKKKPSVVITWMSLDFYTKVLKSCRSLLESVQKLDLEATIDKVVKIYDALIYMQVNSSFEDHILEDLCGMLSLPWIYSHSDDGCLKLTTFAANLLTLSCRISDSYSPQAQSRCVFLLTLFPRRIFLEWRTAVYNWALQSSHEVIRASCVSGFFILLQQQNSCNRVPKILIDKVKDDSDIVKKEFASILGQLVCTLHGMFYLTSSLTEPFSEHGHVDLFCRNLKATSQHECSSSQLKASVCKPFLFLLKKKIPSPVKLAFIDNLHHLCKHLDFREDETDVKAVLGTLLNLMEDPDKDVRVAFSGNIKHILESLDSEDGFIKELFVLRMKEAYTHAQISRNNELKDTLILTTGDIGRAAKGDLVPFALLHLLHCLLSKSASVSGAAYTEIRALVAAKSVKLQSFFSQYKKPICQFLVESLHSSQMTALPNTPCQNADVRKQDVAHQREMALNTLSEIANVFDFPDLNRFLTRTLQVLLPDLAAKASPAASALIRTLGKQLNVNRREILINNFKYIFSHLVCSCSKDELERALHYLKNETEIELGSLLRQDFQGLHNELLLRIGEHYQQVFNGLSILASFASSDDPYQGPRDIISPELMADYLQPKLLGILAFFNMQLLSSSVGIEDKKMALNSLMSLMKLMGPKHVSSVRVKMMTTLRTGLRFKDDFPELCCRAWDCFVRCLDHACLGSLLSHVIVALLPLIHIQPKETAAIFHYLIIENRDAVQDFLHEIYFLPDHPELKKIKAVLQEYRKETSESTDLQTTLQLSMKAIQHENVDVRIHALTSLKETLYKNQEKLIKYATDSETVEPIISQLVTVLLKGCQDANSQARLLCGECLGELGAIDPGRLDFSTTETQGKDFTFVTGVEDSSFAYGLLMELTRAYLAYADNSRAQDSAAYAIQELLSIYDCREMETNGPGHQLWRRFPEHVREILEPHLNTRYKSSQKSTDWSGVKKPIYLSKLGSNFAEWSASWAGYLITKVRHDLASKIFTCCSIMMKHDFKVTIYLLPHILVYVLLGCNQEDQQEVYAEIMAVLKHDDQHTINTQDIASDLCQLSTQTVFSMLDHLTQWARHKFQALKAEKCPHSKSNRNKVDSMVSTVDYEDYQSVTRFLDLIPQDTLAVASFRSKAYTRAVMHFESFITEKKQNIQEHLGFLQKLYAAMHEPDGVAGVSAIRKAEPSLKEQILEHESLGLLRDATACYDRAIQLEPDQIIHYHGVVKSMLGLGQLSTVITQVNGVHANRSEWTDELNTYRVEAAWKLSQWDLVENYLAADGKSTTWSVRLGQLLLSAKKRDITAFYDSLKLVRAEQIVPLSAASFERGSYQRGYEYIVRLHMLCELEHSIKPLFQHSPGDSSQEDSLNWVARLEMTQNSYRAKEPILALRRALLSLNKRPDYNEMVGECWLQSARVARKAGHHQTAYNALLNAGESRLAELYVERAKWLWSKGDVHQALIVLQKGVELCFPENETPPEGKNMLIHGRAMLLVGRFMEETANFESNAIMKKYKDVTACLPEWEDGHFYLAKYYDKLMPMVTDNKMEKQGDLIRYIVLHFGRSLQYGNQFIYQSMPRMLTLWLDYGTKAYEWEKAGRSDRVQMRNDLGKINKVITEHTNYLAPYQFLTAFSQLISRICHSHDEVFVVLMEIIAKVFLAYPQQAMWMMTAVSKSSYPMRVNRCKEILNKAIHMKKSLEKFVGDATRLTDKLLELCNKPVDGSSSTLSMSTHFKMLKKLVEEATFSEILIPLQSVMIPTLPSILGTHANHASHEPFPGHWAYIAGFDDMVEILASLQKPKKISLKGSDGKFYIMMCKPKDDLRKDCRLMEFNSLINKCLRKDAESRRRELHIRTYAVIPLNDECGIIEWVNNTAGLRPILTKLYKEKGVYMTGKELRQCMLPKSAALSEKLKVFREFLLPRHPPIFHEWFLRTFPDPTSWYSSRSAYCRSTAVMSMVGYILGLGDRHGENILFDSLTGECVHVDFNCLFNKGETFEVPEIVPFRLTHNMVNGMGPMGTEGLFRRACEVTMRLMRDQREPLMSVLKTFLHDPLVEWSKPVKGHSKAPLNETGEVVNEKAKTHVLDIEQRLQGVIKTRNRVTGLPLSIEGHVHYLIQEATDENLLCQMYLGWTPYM

In the case of `Cc1nn(C)cc1-c1ccncc1NC(=O)c1c(N)nn2cc(F)cnc12`, the Ki result is “in the range around 505 nM”.
As for `Nc1nn2cc(F)cnc2c1C(=O)Nc1cnccc1N1CCOCC1`, the entry is “in the range around 505 nM”; as for `CNC(=O)C1CCN(c2c(F)cncc2NC(=O)c2c(N)nn3cc(F)cnc23)CC1`, “in the range around 505 nM”.
With `COC1CCN(c2ccncc2NC(=O)c2c(N)nn3cc(F)cnc23)CC1`, the Ki result is “in the range around 505 nM”.
The same measure for `CN(C)CCNC(=O)C1CCN(c2c(F)cncc2NC(=O)c2c(N)nn3cc(F)cnc23)CC1`: “in the range around 505 nM”; for `Nc1nn2cc(F)cnc2c1C(=O)Nc1cnccc1N1CCCCC1`: “in the range around 505 nM”.

As a reminder, the Ki is a measure of affinity in units of concentration, obtained from inhibition or displacement.

These data come from ChEMBL document CHEMBL5727989, “Compounds useful as inhibitors of ATR kinase” (2020).
